Experimental data from US20260285853A1, “COMPOUNDS AND METHODS FOR MODULATING SPLICING” (REMIX THERAPEUTICS INC., priority 2023, published 2026).
pIC50: −log10 of the molar value. Counter-ions that a name gives are not always drawn. Like-named read-outs stand apart in the source and are kept apart here.

What was measured:
Type in all cases: cell-based
[1] = system: MYB mRNA; test: Splicing RT-qPCR assay (THP), Table 2A
[2] = system: HTT mRNA; test: Gene panel canonical junction qPCR assay, decrease in CJ mRNA, Table 3
Summary of the method: (§1)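 A673 (DMEM, 10% FBS, 15,000 cells/well) or K562 (IMDM, 10% FBS) cells treated 24 h at 37 °C with 11-point 3-fold dilutions, top 10 uM, DMSO ≤0.25%. Canonical exon-exon junction mRNA measured by RT-qPCR, normalized to GAPDH, GUSB or PPIA and DMSO (ΔΔCt); IC50 from 4-parameter logistic fit.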

[3] = system: MYB mRNA; test: as above
Summary of the method: as §1

[4] = system: SH-SY5Y (human neuroblastoma) cells; test: Cell viability, Cell Titer Glo 2.0 assay; details: read-out: Viability SHSY5Y.3 GI50
Summary of the method: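 Toxicity screen in SH-SY5Y cells. Compounds were serially diluted in DMSO and then in medium, giving 0.1% DMSO final. Viability was read with CellTiter-Glo 2.0 after 72 h at 37 °C, 5% CO2, against medium-only blank wells.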

[5] = system: HTT mRNA; test: Splicing RT-qPCR assay (THP), Table 2A
[6] = Table 2A, THP, MYB alternative junction (AJ) mRNA, read-out: MYB AJ (AC50, increase in alternative junction mRNA)
[7] = Table 2A, THP, MYB canonical junction (CJ) mRNA, read-out: MYB CJ (IC50, decrease in canonical junction mRNA)
[8] = decrease in CJ mRNA levels, canonical junction qPCR, gene panel
[9] = Table 2A, THP, HTT alternative junction (AJ) mRNA, read-out: HTT AJ (AC50, increase in alternative junction mRNA)
[10] = Table 2A, THP, HTT canonical junction (CJ) mRNA, read-out: HTT CJ (IC50, decrease in canonical junction mRNA)
[11] = Table 2A (THP), AJ mRNA increase, read-out: MYB AJ (increase in alternative junction mRNA, AC50)
[12] = Table 2A (THP), CJ mRNA decrease, read-out: MYB CJ (decrease in canonical junction mRNA, IC50)
[13] = decrease in canonical junction (CJ) mRNA, gene panel qPCR, Table 3
[14] = Table 2A (THP), AJ mRNA increase, read-out: HTT AJ (increase in alternative junction mRNA, AC50)
[15] = Table 2A (THP), CJ mRNA decrease, read-out: HTT CJ (decrease in canonical junction mRNA, IC50)

pIC50 [1, 7] | pIC50 [2, 8] | pIC50 [3, 8] | GI50 [4] [µM] | pIC50 [5, 10] | pIC50 [1, 12] | pIC50 [2, 13] | pIC50 [3, 13] | pIC50 [5, 15] | Structure (SMILES) | AC50 [1, 6] [µM] | AC50 [5, 9] [µM] | AC50 [1, 11] [µM] | AC50 [5, 14] [µM]
> 7.00 | 6.00 to 7.00 | > 7.00 | < 0.1 | 6.00 to 7.00 |  |  |  |  | COc1nc2c(C(=O)Nc3cc(F)c4nn(C)nc4c3)ccc(N3C[C@H](C)N[C@@H](C)C3)c2s1 [Compound 756, 7-[(3S,5S)-3,5-dimethylpiperazin-1-yl]-N-(7-fluoro-2-methyl-benzotriazol-5-yl)-2-methoxy-1,3-benzothiazole-4-carboxamide] | < 0.1 | 0.1 to 1 |  | 
< 5.00 | < 5.00 | < 5.00 | > 10 | < 5.00 |  |  |  |  | Cn1cc2cc(NC(=O)c3ccc(N4CCC(NC5CC5)CC4)c4cn(C)nc34)c(O)c(CNS(C)(=O)=O)c2n1 [Compound 867] | > 10 | > 10 |  | 
 |  |  | 1 to 10 |  | 5.00 to 6.00 | 5.00 to 6.00 | 5.00 to 6.00 | 5.00 to 6.00 | CNC1CCCC(Oc2ccc(C(=O)Nc3cc4cn(C)nc4cc3OC)c3nn(C)cc23)C1 (centres unmarked) [Compound 596] |  |  | 1 to 10 | 1 to 10
< 5.00 | < 5.00 | < 5.00 | 1 to 10 | < 5.00 |  |  |  |  | Cc1cn2cc(NC(=O)c3ccc(N4CCC(NC5CC5)CC4)c4cn(C)nc34)nc2c(Cn2ccnn2)n1 [Compound 803] | > 10 | > 10 |  | 
< 5.00 | < 5.00 | < 5.00 | > 10 | < 5.00 |  |  |  |  | Cn1cc2cc(NC(=O)c3ccc(N4CCC(NC5CC5)CC4)c4cn(C)nc34)cc(CN3CCCS3(=O)=O)c2n1 [Compound 818, 4-(4-(cyclopropylamino)piperidin-1-yl)-N-(7-((1,1-dioxidoisothiazolidin-2-yl)methyl)-2-methyl-2H-indazol-5-yl)-2-methyl-2H-indazole-7-carboxamide hydrochloride] | > 10 | > 10 |  | 
5.00 to 6.00 | < 5.00 | 5.00 to 6.00 | 1 to 10 | < 5.00 |  |  |  |  | Cn1cc2cc(NC(=O)c3ccc(N4CCC(NC5CC5)CC4)c4cn(C)nc34)cc(CNc3ncco3)c2n1 [Compound 880] | 1 to 10 | > 10 |  | 
 |  |  | > 10 |  | < 5.00 | < 5.00 | < 5.00 | < 5.00 | Cc1cn2cc(NC(=O)c3ccc(N4CCC(NC5CC5)CC4)c4cn(C)nc34)nc2c(-c2cnsc2)n1 [Compound 492, 4-[4-(cyclopropylamino)-1-piperidyl]-N-(8-isothiazol-4-yl-6-methyl-imidazo[1,2-a]-pyrazin-2-yl)-2-methyl-indazole-7-carboxamide] |  |  | > 10 | > 10
 |  |  | 1 to 10 |  | 5.00 to 6.00 | 5.00 to 6.00 | 5.00 to 6.00 | 5.00 to 6.00 | COc1cc2nn(C)cc2cc1NC(=O)c1c(NCCO)cc(N2CCC(NC3CC3)CC2)c2cn(C)nc12 [Compound 441, 4-[4-(cyclopropylamino)-1-piperidyl]-6-(2-hydroxyethylamino)-N-(6-methoxy-2-methyl-indazol-5-yl)-2-methyl-indazole-7-carboxamide] |  |  | 1 to 10 | 1 to 10
 |  |  | 1 to 10 |  | 6.00 to 7.00 | < 5.00 | 6.00 to 7.00 | < 5.00 | COc1cc2nn(C)cc2cc1NC(=O)c1ccc(N2CC[C@@H]3CNCC[C@@H]32)c2cn(C)nc12 [Compound 515] |  |  | 0.1 to 1 | 1 to 10
> 7.00 | 6.00 to 7.00 | > 7.00 | 0.1 to 1 | 6.00 to 7.00 |  |  |  |  | CCNC1CCN(c2ccc(C(=O)Nc3cc(F)c4nn(C)cc4c3)c3nc(OC)sc23)CC1 [Compound 704, 7-(4-(ethylamino)piperidin-1-yl)-N-(7-fluoro-2-methyl-2H-indazol-5-yl)-2-methoxybenzo[d]thiazole-4-carboxamide 2,2,2-trifluoroacetate] | < 0.1 | 0.1 to 1 |  | 
5.00 to 6.00 | 5.00 to 6.00 | 5.00 to 6.00 | 1 to 10 | 5.00 to 6.00 |  |  |  |  | COc1nc(NC(=O)c2c(F)cc(N3CCC(NC4CC4)CC3)c3nc(C)sc23)cn2cc(C)nc12 [Compound 664, 4-[4-(cyclopropylamino)-1-piperidyl]-6-fluoro-N-(8-methoxy-2-methylimidazo-[1,2-a]pyrazin-6-yl)-2-methyl-1,3-benzothiazole-7-carboxamide] | 1 to 10 | 1 to 10 |  | 
5.00 to 6.00 | < 5.00 | 5.00 to 6.00 | > 10 | < 5.00 |  |  |  |  | CCNC1CCN(c2ccc(C(=O)Nc3cc(CN4CCCC4=O)c4nn(C)cc4c3)c3nn(C)cc23)CC1 [Compound 820, 4-[4-(ethylamino)-1-piperidyl]-2-methyl-N-[2-methyl-7-[(2-oxopyrrolidin-1-yl)methyl]indazol-5-yl]indazole-7-carboxamide] | > 10 | > 10 |  | 
 |  |  | 0.1 to 1 |  | 6.00 to 7.00 | 6.00 to 7.00 | 6.00 to 7.00 | 6.00 to 7.00 | Cc1cn2cc(NC(=O)c3c(F)cc(N4CC5(CNC5)C4)c4cn(C)nc34)nc2c(C)n1 [Compound 470, 4-(2,6-diazaspiro[3.3]heptan-2-yl)-N-(6,8-dimethyl-imidazo-[1,2-a]-pyrazin-2-yl)-6-fluoro-2-methyl-indazole-7-carboxamide] |  |  | 0.1 to 1 | 0.1 to 1
 |  |  | 1 to 10 |  | < 5.00 | < 5.00 | < 5.00 | < 5.00 | Cn1cc2c(N3CCC(NC4CC4)CC3)cc(F)c(C(=O)Nc3ccc4c(c3)B(O)OC4)c2n1 [Compound 482, 4-[4-(cyclopropyl-amino)-1-piperidy1]-6-fluoro-N-(1-hydroxy-3H-2,1-benzoxaborol-6-y1)-2-methyl-indazole-7-carboxamide 2,2,2-trifluoroacetate] |  |  | > 10 | > 10
6.00 to 7.00 | < 5.00 | 6.00 to 7.00 | 0.1 to 1 | < 5.00 |  |  |  |  | Cc1cc2c(N3CCC(NC4CC4)CC3)ccc(C(=O)Nc3cc(CNS(C)(=O)=O)c4nn(C)cc4c3)n2n1 [Compound 822] | 0.1 to 1 | > 10 |  | 
> 7.00 | > 7.00 | > 7.00 | 0.1 to 1 | > 7.00 |  |  |  |  | COc1nc2c(C(=O)Nc3cc(F)c4nc(C)cn4c3)ccc(N3CCC(NC4CC4)CC3)c2o1 [Compound 690, 7-[4-(cyclopropylamino)-1-piperidyl]-N-(8-fluoro-2-methyl-imidazo[1,2-a]pyridin-6-yl)-2-methoxy-1,3-benzoxazole-4-carboxamide] | < 0.1 | 0.1 to 1 |  | 
 |  |  | 1 to 10 |  | 5.00 to 6.00 | 5.00 to 6.00 | 5.00 to 6.00 | 5.00 to 6.00 | Cc1cn2cc(NC(=O)c3ccc(N4CC5CNCC5C4)c4cn(C)nc34)nc2c(C)n1 (centres unmarked) [Compound 526] |  |  | 1 to 10 | 1 to 10
 |  |  | 1 to 10 |  | 6.00 to 7.00 | < 5.00 | 6.00 to 7.00 | < 5.00 | CCNCC1CCN(c2cc(F)c(C(=O)Nc3cn4cc(C)nc(C)c4n3)c3nn(C)cc23)C1 (centres unmarked) [Compound 471, N-(6,8-dimethylimidazo-[1,2-a]-pyrazin-2-yl)-4-(3-[(ethylamino)methyl]-pyrrolidin-1-yl)-6-fluoro-2-methyl-indazole-7-carboxamide] |  |  | 0.1 to 1 | > 10
5.00 to 6.00 | < 5.00 | 5.00 to 6.00 | 1 to 10 | < 5.00 |  |  |  |  | COc1cc2c(N3CCC(NC4CC4)CC3)ccc(C(=O)Nc3cc(CNS(C)(=O)=O)c4nc(C)cn4c3)n2n1 [Compound 838] | 1 to 10 | > 10 |  | 

Structure (SMILES) | pIC50 [1, 7] | pIC50 [2, 8] | pIC50 [3, 8] | GI50 [4] [µM] | pIC50 [5, 10] | pIC50 [1, 12] | pIC50 [2, 13] | pIC50 [3, 13] | pIC50 [5, 15] | AC50 [1, 6] [µM] | AC50 [5, 9] [µM] | AC50 [1, 11] [µM] | AC50 [5, 14] [µM]
COc1cc2nn(C)cc2cc1NC(=O)c1c(F)cc(N2[C@@H]3CC[C@H]2C[C@H](NC2CC2)C3)c2cn(C)nc12 [Compound 429, 4-[(1S,5R)-3-(cyclopropyl-amino)-8-azabicyclo-[3.2.1]octan-8-yl]-6-fluoro-N-(6-methoxy-2-methyl-indazol-5-yl)-2-methyl-indazole-7-carboxamide] |  |  |  | 1 to 10 |  | 5.00 to 6.00 | 5.00 to 6.00 | 5.00 to 6.00 | 5.00 to 6.00 |  |  | 1 to 10 | > 10
